According to US8697725B2, “Tetrahydroquinoline derivatives and their pharmaceutical use” (GlaxoSmithKline LLC, priority 2009, dated 2014):
Where a name gives a salt, the structure may show the parent alone.

Tests used:
TNFα = experiment: LPS Stimulated Whole Blood Measuring TNFα Levels Assay; assay type: cell-based; settings: 24 h, LPS 200 ng/ml, immunoassay, read-out: pIC50, TNFα levels in LPS stimulated whole blood (converted)
Protocol: LPS Stimulated Whole Blood Measuring TNFα Levels Assay
(§1) Activation of monocytic cells by agonists of toll-like receptors such as bacterial lipopolysaccharide (LPS) results in production of key inflammatory mediators including TNFα. Such pathways are widely considered to be central to the pathophysiology of a range of auto-immune and inflammatory disorders.
Compounds to be tested are diluted to give a range of appropriate concentrations and 1 ul of the dilution stocks is added to wells of a 96 plate. Following addition of whole blood (130 ul) the plates are incubated at 37 degrees (5% CO2) for 30 min before the addition of 10 ul of 2.8 ug/ml lipopolysaccharides (LPS), diluted in complete RPMI 1640 (final concentration=200 ng/ml), to give a total volume of 140 ul per well. After further incubation for 24 hours at 37 degrees, 140 ul of PBS are added to each well. The plates are sealed, shaken for 10 minutes and then centrifuged (2500 rpm×10 min). 100 ul of the supernatant are removed and TNFα levels assayed by immunoassay (typically by MesoScale Discovery technology) either immediately or following storage at −20 degrees. Dose response curves for each compound was generated from the data and an IC50 value was calculated.

IL-6 = experiment: Measurement of LPS Induced IL-6 Secretion from Whole Blood; assay type: cell-based; settings: 24 h, LPS 200 ng/ml, immunoassay, read-out: pIC50, LPS induced IL-6 secretion from whole blood (converted)
Protocol: Measurement of LPS Induced IL-6 Secretion from Whole Blood
as §1, with “IL-6.” for “TNFα.”
Compounds to be tested are diluted to give a range of appropriate concentrations of which 1 ul of the diluted stocks is added to a 96 well plate. Following addition of whole blood (130 ul) the plates are incubated at 37 degrees (5% CO2) for 30 min before the addition of 10 ul of 2.8 ug/ml LPS, diluted in complete RPMI 1640 (final concentration=200 ng/ml), to give a total volume of 140 ul per well. After further incubation for 24 hours at 37 degrees, 140 ul of PBS are added to each well. The plates are sealed, shaken for 10 minutes and then centrifuged (2500 rpm×10 min). 100 ul of the supernatant are removed and IL-6 levels assayed by immunoassay (typically by MesoScale Discovery technology) either immediately or following storage at −20 degrees. Concentration response curves for each compound was generated from the data and an IC50 value was calculated.

Compound | IC50 (TNFα) [µM] | IC50 (IL-6) [µM]
CC(=O)N1c2ccc(-c3cnc(N4CCOCC4)nc3)cc2[C@@H](NC(=O)OC(C)C)C[C@H]1C (racemic) [Example 51, 1-methylethyl {(cis)-1-acetyl-2-methyl-6-[2-(4-morpholinyl)-5-pyrimidinyl]-1,2,3,4-tetrahydro-4-quinolinyl}carbamate hydrochloride] | ≤ 6.31 | –
CC(=O)N1c2ccc(-c3cnc(N)nc3)cc2[C@@H](NC(=O)OC(C)C)C[C@H]1C (racemic) [Example 50, 1-methylethyl[(cis)-1-acetyl-6-(2-amino-5-pyrimidinyl)-2-methyl-1,2,3,4-tetrahydro-4-quinolinyl]carbamate hydrochloride] | ≤ 6.31 | –
CC(=O)N1c2ccc(-c3ccc(N4CCN(C(=O)OC(C)(C)C)CC4)nc3)cc2[C@@H](NC(=O)OC(C)C)C[C@H]1C (racemic) [Example 8, 1,1-dimethylethyl 4-{5-[(cis)-1-acetyl-2-methyl-4-({[(1-methylethyl)oxy]carbonyl}amino)-1,2,3,4-tetrahydro-6-quinolinyl]-2-pyridinyl}-1-piperazinecarboxylate] | ≤ 6.31 | –
CC(=O)N1c2ccc(-c3sc(C)nc3C)cc2[C@@H](NC(=O)OC(C)C)C[C@H]1C (racemic) [Example 32, 1-methylethyl[(cis)-1-acetyl-6-(2,4-dimethyl-1,3-thiazol-5-yl)-2-methyl-1,2,3,4-tetrahydro-4-quinolinyl]carbamate] | ≤ 6.31 | –
CC(=O)N1c2ccc(Br)cc2[C@@H](NC(=O)OC2CCC2)C[C@H]1C (racemic) [Example 33, cyclobutyl[(cis)-1-acetyl-6-bromo-2-methyl-1,2,3,4-tetrahydro-4-quinolinyl]carbamate] | ≤ 6.31 | –
CC(=O)N1c2ccc(-c3ccn[nH]3)cc2[C@@H](NC(=O)OC(C)C)C[C@H]1C (racemic) [Example 31, 1-methylethyl[(cis)-1-acetyl-2-methyl-6-(1H-pyrazol-5-yl)-1,2,3,4-tetrahydro-4-quinolinyl]carbamate] | ≤ 6.31 | –
CC(=O)N1c2ccc(Br)cc2[C@H](NC(=O)OC(C)C)C[C@@H]1C [Example 4, 1-methylethyl[(2S,4R)-1-acetyl-6-bromo-2-methyl-1,2,3,4-tetrahydro-4-quinolinyl]carbamate] | ≤ 6.31 | –
CC(=O)N1c2ccc(-c3cnc(N4CCNCC4)cn3)cc2[C@@H](NC(=O)OC(C)C)C[C@H]1C (racemic) [Example 43, 1-methylethyl {(cis)-1-acetyl-2-methyl-6-[5-(1-piperazinyl)-2-pyrazinyl]-1,2,3,4-tetrahydro-4-quinolinyl}carbamate hydrochloride] | ≤ 6.31 | –
CC(=O)N1c2ccc(-n3cnc(C)c3)cc2[C@H](NC(=O)OC(C)C)C[C@@H]1C [Example 84, 1-Methylethyl[(2S,4R)-1-acetyl-2-methyl-6-(4-methyl-1H-imidazol-1-yl)-1,2,3,4-tetrahydro-4-quinolinyl]carbamate] | – | ≤ 31.6
CC(=O)N1c2ccc(-n3cnc(CNCCO)c3)cc2[C@@H](NC(=O)OC(C)C)C[C@H]1C (racemic) [Example 92, 1-Methylethyl[(cis)-1-acetyl-6-(4-{[(2-hydroxyethyl)amino]methyl}-1H-imidazol-1-yl)-2-methyl-1,2,3,4-tetrahydro-4-quinolinyl]carbamate] | – | ≤ 31.6
CC(=O)N1c2ccc(-c3ncc[nH]3)cc2[C@H](NC(=O)OC(C)C)C[C@@H]1C [Example 86, 1-Methylethyl[(2S,4R)-1-acetyl-6-(1H-imidazol-2-yl)-2-methyl-1,2,3,4-tetrahydro-4-quinolinyl]carbamate] | – | ≤ 31.6
CC(=O)N1c2ccc(-c3nnc(C)s3)cc2[C@H](NC(=O)OC(C)C)C[C@@H]1C [Example 68, 1-Methylethyl[(2S,4R)-1-acetyl-2-methyl-6-(5-methyl-1,3,4-thiadiazol-2-yl)-1,2,3,4-tetrahydro-4-quinolinyl]carbamate] | – | ≤ 31.6
CC(=O)N1c2ccc(-c3noc(C)n3)cc2[C@H](NC(=O)OC(C)C)C[C@@H]1C [Example 64, 1-Methylethyl[(2S,4R)-1-acetyl-2-methyl-6-(5-methyl-1,2,4-oxadiazol-3-yl)-1,2,3,4-tetrahydro-4-quinolinyl]carbamate] | – | ≤ 31.6

Next, values leading:

IC50 (TNFα) [µM] | IC50 (IL-6) [µM] | Compound
≤ 6.31 | – | CC(=O)N1c2ccc(-c3csc(CN4CCCCC4)n3)cc2[C@@H](NC(=O)OC(C)C)C[C@H]1C (racemic) [Example 41, 1-methylethyl {(cis)-1-acetyl-2-methyl-6-[2-(1-piperidinylmethyl)-1,3-thiazol-4-yl]-1,2,3,4-tetrahydro-4-quinolinyl}carbamate]
≤ 6.31 | – | CC(=O)N1c2ccc(-c3cnn(CCN4CCC(N)CC4)c3)cc2[C@@H](NC(=O)OC(C)C)C[C@H]1C (racemic) [Example 39, 1-methylethyl((cis)-1-acetyl-6-{1-[2-(4-amino-1-piperidinyl)ethyl]-1H-pyrazol-4-yl}-2-methyl-1,2,3,4-tetrahydro-4-quinolinyl)carbamate dihydrochloride]
≤ 6.31 | – | CC(=O)N1c2ccc(-c3cnn(CCN4CCCCC4)c3)cc2[C@@H](NC(=O)OC(C)C)C[C@H]1C (racemic) [Example 46, 1-methylethyl((cis)-1-acetyl-2-methyl-6-{1-[2-(1-piperidinyl)ethyl]-1H-pyrazol-4-yl}-1,2,3,4-tetrahydro-4-quinolinyl)carbamate hydrochloride]
≤ 6.31 | – | CC(=O)N1c2ccc(-c3ccc(CN4CCCC4)cc3)cc2[C@H](NC(=O)OC(C)C)C[C@@H]1C (relative stereo) [Example 30, 1-methylethyl {(cis)-1-acetyl-2-methyl-6-[4-(1-pyrrolidinylmethyl)phenyl]-1,2,3,4-tetrahydro-4-quinolinyl}carbamate hydrochloride]
≤ 6.31 | – | CC(=O)N1c2ccc(-c3ccc(CN4CCCCC4)cc3)cc2[C@H](N(C)C(=O)OC(C)C)C[C@@H]1C (racemic) [Example 42, formic acid-1-methylethyl {(cis)-1-acetyl-2-methyl-6-[4-(1-piperidinylmethyl)phenyl]-1,2,3,4-tetrahydro-4-quinolinyl}methylcarbamate (1:1)]
≤ 6.31 | – | CC(=O)N1c2ccc(-c3ncc(CN4CCCCC4)s3)cc2[C@@H](NC(=O)OC(C)C)C[C@H]1C (racemic) [Example 52, 1-methylethyl {(cis)-1-acetyl-2-methyl-6-[5-(1-piperidinylmethyl)-1,3-thiazol-2-yl]-1,2,3,4-tetrahydro-4-quinolinyl}carbamate hydrochloride]
≤ 6.31 | – | CC(=O)N1c2ccc(-c3cc(CN4CCCCC4)co3)cc2[C@@H](NC(=O)OC(C)C)C[C@H]1C (racemic) [Example 18, 1-methylethyl {(cis)-1-acetyl-2-methyl-6-[4-(1-piperidinylmethyl)-2-furanyl]-1,2,3,4-tetrahydro-4-quinolinyl}carbamate]
≤ 6.31 | – | CNCc1cccc(-c2ccc3c(c2)[C@H](NC(=O)OC(C)C)C[C@H](C)N3C(C)=O)c1 [Example 111, 1-Methylethyl((2S,4R)-1-acetyl-2-methyl-6-{3-[(methylamino)methyl]phenyl}-1,2,3,4-tetrahydro-4-quinolinyl)carbamate hydrochloride]
≤ 6.31 | – | CC(=O)N1c2ccc(-c3ccc(N4CCCCC4)nc3)cc2[C@@H](NC(=O)OC(C)C)C[C@H]1C (racemic) [Example 11, 1-methylethyl {(cis)-1-acetyl-2-methyl-6-[6-(1-piperidinyl)-3-pyridinyl]-1,2,3,4-tetrahydro-4-quinolinyl}carbamate hydrochloride]
≤ 6.31 | – | CC(=O)N1c2ccc(-c3ccc(N4CCNCC4)nn3)cc2[C@@H](NC(=O)OC(C)C)C[C@H]1C (racemic) [Example 45, 1-methylethyl {(cis)-1-acetyl-2-methyl-6-[6-(1-piperazinyl)-3-pyridazinyl]-1,2,3,4-tetrahydro-4-quinolinyl}carbamate hydrochloride]
– | ≤ 31.6 | CC(=O)N1c2ccc(-c3ccc(CCO)cc3)cc2[C@H](NC(=O)OC(C)C)C[C@@H]1C [Example 95, 1-Methylethyl {(2S,4R)-1-acetyl-6-[4-(2-hydroxyethyl)phenyl]-2-methyl-1,2,3,4-tetrahydro-4-quinolinyl}carbamate]
– | ≤ 31.6 | CC(=O)N1c2ccc(-c3ccccc3C)cc2[C@H](NC(=O)OC(C)C)C[C@@H]1C [Example 93, 1-Methylethyl[(2S,4R)-1-acetyl-2-methyl-6-(2-methylphenyl)-1,2,3,4-tetrahydro-4-quinolinyl]carbamate]
